Source: patent US6300313A, “Means for treating prostate hypertrophy and prostate cancer” (ASTA Medica Aktiengesellschaft, priority 1999, dated 2001)
Non-standard residues stand in square brackets, D forms with d. Residues, ends and D or L forms follow the SMILES beside them. dPhe(4-Cl) = N[C@H](Cc1ccc(Cl)cc1)C(=O)O; d2Nal = N[C@H](Cc1ccc2ccccc2c1)C(=O)O; dCit = NC(=O)NCCC[C@@H](N)C(=O)O; d3Pal = N[C@H](Cc1cccnc1)C(=O)O

Legend:
BPH patients = settings: 500 μg every 12 hours for 4 weeks, cited from earlier work
BPH = assay: Clinical therapy of BPH with Cetrorelix (Example 1); format: in vivo, patients; settings: Example 1 therapy regimen
Protocol: Cetrorelix is administered in a dose of 0.5 mg to 2 mg daily for 4 to 8 weeks for the therapy of BPH. A dose of 5 mg to 30 mg, dispensed once per week or every 10 days also over a time period of 4 to 8 weeks as well as one every two weeks or one injection per month of 20 mg to 60 mg can also decisively improve the clinical symptoms and signs. […] The prostate volume decreases by 20 to 40% during the treatment time of 4 to 8 weeks. […] In addition, at least 30% of the patients achieve an improvement of the urine flow of 6 ml/sec with this therapy. This is almost equivalent to an improvement like that associated with the golden standard operation, and in considerably shorter time. […] These clinical benefits continue for at least 3 to 6 months after therapy. This allows a long-term therapy of BPH with only an intermittent treatment of 2 to max. 4 injection cycles over 4 to 8 weeks.

[1] = tested on: Prostate carcinoma patients; settings: cited from earlier work

CC(=O)N[C@H](Cc1ccc2ccccc2c1)C(=O)N[C@H](Cc1ccc(Cl)cc1)C(=O)N[C@H](Cc1cccnc1)C(=O)N[C@@H](CO)C(=O)N[C@@H](Cc1ccc(O)cc1)C(=O)N[C@H](CCCNC(N)=O)C(=O)N[C@@H](CC(C)C)C(=O)N[C@@H](CCCNC(=N)N)C(=O)N1CCC[C@H]1C(=O)N[C@H](C)C(N)=O [Cetrorelix] (Ac-[d2Nal][dPhe(4-Cl)][d3Pal]SY[dCit]LRP[dA]-NH2)
symptoms of dysuria and prostate volume (BPH patients): distinct decrease | testosterone levels, initially (BPH patients; initial phase): lowering in testosterone levels to a castration level | testosterone levels in the course of treatment (BPH patients; no castration values during the last three weeks): fluctuated at subnormal levels | quality of life (BPH): significant improvements | sexual performance (BPH): No limitations in sexual performance are observed | testosterone level (BPH): Submaximal decreases of testosterone occur, but these are above those levels associated with castration | increase of the peak flow of the urine (BPH; 4 to 8 weeks): approximately 3 ml/sec | patients achieving an improvement of the urine flow of 6 ml/sec (BPH; 4 to 8 weeks): at least 30% | testosterone levels, initially ([1]; 500 μg every 12 hours for 6 weeks, initial phase): lowering in testosterone levels to a castration level | overall condition of the patient ([1]; end of the 6 weeks of therapy): considerable improvement | testosterone values at the end of therapy ([1]; end of the 6 weeks of therapy): castration levels
